What was measured:
[1] = system: DNBS induced colitis in Wistar rats; assay: DNBS induced colitis model in Wistar rats; format: in vivo, rat; design: Degree of adhesion (score) / Degree of intestinal infarction (score) / Severity of ulcer (score) / Degree of intestinal wall thickening (score) / Macroscopic colon score: scale not given here; settings: oral once a day Day 0 to Day 6, compounds 10 mg/kg, osalazine sodium 300 mg/kg; for Degree of adhesion (score) / Degree of intestinal infarction (score) / Degree of intestinal wall thickening (score) / Severity of ulcer (score): mean score per Table 4; for Ulcer length / Ulcer width: mean
From the text: The therapeutic effect of compounds prepared in some examples of the present invention on 2,4-dinitrobenzenesulfonic acid (DNBS) induced ulcerative colitis in Wistar rats (corresponding to Crohn's disease) was investigated.
• Animal species and strains: Wistar rats • Administration record: No administration history • Gender and weight: Male, about 150 g • Breeding party/supplier: Shanghai SLAC Laboratory Animal Co., Ltd • Adaptation period: 5 days • Room: Regular Area Rooms • Indoor temperature: 20-26° C. • Indoor relative humidity: 40-70% • Lighting: Fluorescent lighting, 12-hour illumination (08:00-20:00) and 12-hour no illumination • Animal feeding: 2-4 rats per cage (same administration group) • Food: Unlimited access to feed (disinfected by irradiation, Jiangsu Xietong Pharmaceutical Bio-engineering Co., Ltd., China) • Water: Unlimited access to drinking water (treated with reverse osmosis and high-pressure sterilization)
A total of 80 Wistar rats were purchased from Shanghai SLAC Laboratory Animal Co., Ltd, of which 10 were used as backup animals to select animals with suitable weight range included in the groups, in order to control the fluctuation of disease severity caused by weight fluctuations.
BioBook software was used to screen 70 animals for random grouping based on animal weight to ensure that the weight values of each group of animals were similar to reduce bias.
3.1 DNBS powder was dissolved in 30% ethanol with a final concentration of 60 mg/mL.
3.2 Induction of colorectal inflammation: Before the experiment, rats were fasted for 40 hours and subcutaneously injected with 5% glucose saline during the fasting period. On the day 0 of the experiment, fasting rats were anesthetized by intraperitoneal injection of Zoletil and 5 mg/kg Xylazine. G2 group-G7 group, a hose was extended from the anus to the left curvature of the colorectum, and colorectal inflammation in rats was induced with DNBS enema. The normal control group (G1) was treated with 30% ethanol enema using the same method.
3.3. Dosage regimen: After DNBS induction in G1 and G2 groups of animals, solvent was administered. After DNBS induction in G3 group, 300 mg/kg of oxalazine sodium was administered. After DNBS induction in G4 to G7 groups, 10 mg/kg of the compounds of the present invention were administered respectively. Please refer to Table 3 for the administration time, specific administration dosage, and administration route. Starting from day 0 of modeling, the drugs were administered continuously for 7 days, and the animals were euthanized on day 6.
3.4 Testing indicators: After the experiment, all animals were euthanized by inhaling excessive CO2 and dislocation of cervical vertebra. After the abdominal cavity was cut open, the colorectum was taken out and the length of it was immediately measured. Then the colorectum was longitudinally cut open and rinsed clean. The weight of the colorectum and the area of the ulcer were recorded and the whole was photographed. At the same time, the damage to the rat colorectum was evaluated macroscopically according to Table 4.
The health status of animals and their comprehensive response to surgery and medication were observed every day.
The experimental data was calculated as mean±standard error. Statistical analysis was performed using Graphpad Prism, SPSS, or Sigmaplot software. The specific data is presented in the form of charts. P<0.05 is considered to have statistical differences.

[2] = system: acetic acid induced writhing in ICR mice; assay: acetic acid induced writhing pain model in ICR mice; format: in vivo, mouse; settings: for writhing frequency: 30 mg/kg single oral administration 1 h before 0.6% acetic acid i.p., 20 minutes observation, compared with G1 model group, FIG. 6; for efficacy compared with aspirin: 30 mg/kg single oral administration vs 200 mpk of aspirin
From the text: The pharmacological effect of compounds prepared in some examples of the present invention on an acetic acid induced writhing pain model in ICR mice was investigated.
The acetic acid writhing pain model in mice is a classic pharmacological model for evaluating the treatment of drugs for visceral pain and inflammatory pain.
• Animal species and strains: ICR mice • Medical treatment history: None • Gender, age, and weight: Male, 8 weeks old, 20-25 g • Breeder/Supplier: Shanghai SLAC Laboratory Animal Co., Ltd • Adaptation period: no less than 7 days • Room: Regular level room • Room temperature: 19-26° C. • Relative humidity: 40-70% • Lighting cycle: fluorescent lighting, 12 hours of illumination (08:00-20:00) and 12 hours of no illumination • Animal feeding: 5 animals/cage divided by group • Food: Free intake (irradiated feed, Shanghai SLAC Laboratory Animal Co., Ltd, China) • Water: Free intake (Mol Ultrapure Water System filtered municipal tap water)
A total of 70 mice were introduced from Shanghai SLAC Laboratory Animal Co., Ltd. The animals were SPF grade and purchased at approximately 7 weeks old.
Animals are randomly assigned to each treatment group according to the weight using the BioBook randomization function to achieve an approximate average weight for each group and reduce inter group bias.
3.1 Within 12 hours before use, a glacial acetic acid solution with a mass volume fraction of 0.6% was prepared with 0.9% physiological saline.
3.2. Administration treatment: G1 group animals were orally administered 0.9% physiological saline; G2-G6 were specifically administered the compounds of the present invention referred to the specific dosage regimen in Table 9.
3.3. Modeling treatment: G1 group animals were administered 0.9% physiological saline by gavage, and after 1 hour, 0.6% glacial acetic acid was injected intraperitoneally to induce pain response (10 ml/kg). G2-G8 group animals were injected intraperitoneally with 0.6% glacial acetic acid to induce pain response (10 ml/kg) after different groups were administered according to the regimen designed in Table 9.
3.4 Measurement: The weight of all mice was recorded before modeling treatment. A torsion test was recorded immediately after acetic acid treatment. The behavioral observation period lasted for 20 minutes. Writhes were counted by a single preson (one standard writhe includes abdominal muscle contraction, muscle extension, and hind limb extension). After testing, the animals were euthanized with CO2.
3.5 Experimental observation: Animal health observation and general response to drug treatment were conducted daily. All abnormal health and behavioral behaviors were recorded.
The experimental data was calculated as mean±standard error. Statistical analysis was performed using Graphpad Prism, SPSS, or Sigmaplot software. The specific data is presented in the form of graphs. P<0.05 is considered to have statistical differences.

Row | Structure (SMILES) | Degree of adhesion (score) [1] | Degree of intestinal infarction (score) [1] | Degree of intestinal wall thickening (score) [1] | Severity of ulcer (score) [1] | Ulcer length [1] [cm] | Ulcer width [1] [cm] | writhing frequency [2] | efficacy compared with aspirin [2]
1 | CNCc1ccc(NS(=O)(=O)c2ccsc2)c(-c2ccco2)c1 [IA-30] | 0.00 | 0.00 | 0.13 | 0.80 | 0.33 | 0.19 | significantly reduce | basically equivalent to that of 200 mpk of aspirin
2 | CNCc1ccc(-c2nccs2)c(NS(=O)(=O)c2ccccc2)c1 [IA-51, N-(5-((methylamino)methyl)-2-(thiazol-2-yl)phenyl)benzenesulfonamide] | 0.07 | 0.00 | 0.27 | 0.60 | 0.31 | 0.20 | significantly reduce | basically equivalent to that of 200 mpk of aspirin
3 | CNCc1ccc(-c2cc[nH]n2)c(NS(=O)(=O)c2ccccc2)c1 [IA-55, N-(5-((methylamino)methyl)-2-(1H-pyrazol-3-yl)phenyl)benzenesulfonamide] | 0.10 | 0.10 | 0.30 | 1.20 | 0.60 | 0.40 | significantly reduce | basically equivalent to that of 200 mpk of aspirin
4 | NCc1ccc(NS(=O)(=O)c2ccsc2)c(-c2ccco2)c1 [ID-5] | 0.00 | 0.00 | 0.10 | 0.70 | 0.34 | 0.12 | significantly reduce | basically equivalent to that of 200 mpk of aspirin
